Values joined by “and” are separate entries in the source; they are usually repeats but may differ in a detail not shown here. Identical values can stand only once. Like-named read-outs stand apart in the source and are kept apart here. Each block holds one compound with its values, some of them ahead of it.
Columns and labels:
[1] = test system: Friend Leukemia Virus; experiment: FV-induced splenomegaly, PAC compounds in combination with AZT (Example 1(b)); type: in vivo, BALB/c mice; parameters: Spleen weight / Average Spleen Weight: unit not given here; conditions: for Spleen weight: single animal
Protocol: (§1) The effects of compositions according to the present invention on the increase in spleen size (splenomegaly) of BALB/c mice (Jackson Labs, Bar Harbor, ME) was examined. In these experiments, the virus (10^6 focus forming units--FFU) was inoculated intravenously and 100 micrograms of the compounds indicated in Table II were administered to the mice intraperitoneally 24 hours later. Each compound was administered once to two mice. The animals were sacrificed ten days later and their spleens weighed.
(§2) As used in Table II (and subsequent Tables of this Example l(a) and (b), "average percent inhibition" is calculated as follows: [formula] wherein "ASWNC" designates "average spleen weight of negative control"; "ASWE" designates "average spleen weight of experimental (treated) subject"; and "ASWPC" designates "average spleen weight of positive control". Average spleen weight is the numerical average of spleen weights of each experimental group (in Table II each such group includes two members).
The compounds of the present invention (100 micrograms per mouse) were also tested in combination with AZT (20 micrograms per mouse, twice a day) using otherwise the same methods as in Example 1(a) above. As representatives, compound #9 above (3-bromophenanthro (3,4-C), phenanthrene) and compound #10 (diindeno (1, 2, 3-CD/1', 2', 3'-IM) Perylene) were chosen. […] The compounds were administered i.p. either once or five times (once per day) alone or together with AZT (20 micrograms of AZT per mouse twice a day for five days?). Thus, in experiments where AZT was administered five times, a total of […] of AZT was received by each mouse (with a total of 500 micrograms of the PAC compound).

[2] = test system: Friend Leukemia Virus; experiment: Inhibition of Friend Leukemia Virus-induced splenomegaly in mice, compounds intraperitoneally 24 hours after virus (Example 1(a)); type: in vivo, BALB/c mice; parameters: Actual Spleen Weight / Average Spleen Weight: unit not given here; conditions: for inhibition in vivo at 0.1 mg / inhibition in vivo at 0.05 mg / inhibition in vivo at 0.2 mg: Mus musculus, ip; for Pooled Average % Inhibition: pooled over 50, 100, 200, 2 × 100 micrograms
Source text: The effects of compositions according to the present invention on infection of mammals with Friend Leukemia Virus (FV) were examined.
Friend Leukemia Virus is an aggressive retrovirus which induces an acute erythroleukemia in sensitive strains of mice such as BALB/c and NIH swiss mice as described in Friend, C. J., Exp. Med. 105: 307-324, 1957; Friend, C. et al. Proc. Natl. Acad. Sci. USA 68: 378-383, 1971; Friend, C. et al. Natl. Cancer Inst. Mongr. 22: 508-552, 1966. The malignant transformation is the result of the combined activities of the Spleen Focus Forming Virus (SFFV) and the ecotropic Murine Friend Leukemia Helper Virus (F-MuLV). The acute erythroleukemia is characterized by hepatosplenomegaly (a marked increase in the size of the spleen and liver) and a severe anemia.
Friend Leukemia Virus was prepared by homogenizing the enlarged spleen of a mouse previously infected with FV, 10 days after intravenous virus injection. The spleen was homogenized in phosphate buffered saline in a volume equal to ten times the weight of the isolated spleen.
as §1
The present assay has been developed from similar assays using hypericin or pseudohypericin and employing higher numbers of experimental animals per group (e.g. 4 animals). It was discovered however that the specificity and sensitivity of this assay are such that an experimental group of two animals is of more than adequate predictive value.
as §2
In these experiments, the virus (10^6 focus forming units--FFU) was inoculated intravenously, and the indicated doses of the antiviral compounds of this invention were administered to the BALB/c mice intraperitoneally 24 hours later. The animals were then sacrificed ten days later and their spleens weighed.
Pseudohypericin was diluted in phosphate buffered saline with 1% ethanol.
An expanded series of experiments was next performed in which various concentrations (i.e. 50, 100, 200 and 2×100, i.e., 100 micrograms administered twice) of a different set of PAC compounds (numbers 16-29 and 30-36 in Table III below) were administered intraperitoneally each according to the same protocol described above. Compounds 16-29 all had 3-5 fused, aromatic rings and no side groups except for oxygen or hydroxyl groups, whereas compounds 30-36 all had 3 fused aromatic rings and side chains selected from the group of oxygen, hydroxyl and methyl.
When 2 doses of the compounds were given, the second dose was administered 24-48 hours after the first injection. The animals were infected and splenomegaly determined as above for the compounds in Table II. In Table III, "pooled average percent inhibition" is calculated by adding the average percent inhibition for each experiment with the same compound and dividing the sum by the number of experiments (i.e. the number 4). […]

[3] = test system: retroviruses (virions); experiment: Direct inactivation of retroviruses (virions) in vitro (Example 10); type: biochemical, Radiation Leukemia Virus; conditions: Table IX
Protocol: (§3) Supernatants (10 ml/tube) from B10.T(6R) cells (Meruelo et al. J. Exp. Med. 147: 470-487, 1978) chronically infected with Radiation Leukemia Virus (RadLV) were obtained by centrifugation of cells in culture at 4° C., 3500 rpm for 15 minutes. The top 2/3 of the supernatant were removed and aliquots were incubated for 30 minutes on ice with the indicated amounts of hypericin or protohypericin. […] Thereafter, supernatants were centrifuged at 100,000×g using a TI70 rotor (Beckman Instruments) for 1 hour at 4° C. The pellet was […] and analyzed for reverse transcriptase activity as follows.
(§4) The reverse transcriptase assay was performed in a volume of 100 microliters containing the following components:
(1) Direct inactivation of retroviruses in vitro, performed as in Example 3 above;
(§5) The results presented above in Table IX are presented as EC50 concentrations. These are the effective concentrations which inhibit 50% of the viruses in micromolar concentrations.

[4] = biological target: T1, Radiation Leukemia Virus reverse transcriptase (Radiation murine leukemia virus, UniProt P11227); experiment: Radiation Leukemia Virus reverse transcriptase assay, supernatants from infected AQR cells (Examples 4 and 9); type: biochemical; conditions: for Average CPM / CPM / Average percent inhibition: Table VI; for CPM: replicate
T1 construct: the reverse transcriptase of Radiation Leukemia Virus; endogenous in cells
Protocol: as §3, §4
The antiviral activity of HHA was tested using AQR (Bach and Meruelo, J. Exp. Med. 160:270-285, 1984) cells chronically infected with Radiation Leukemia Virus in the reverse transcriptase assay as described in Example 3 above.
The assays were conducted using the same procedure as in Example 3 above, using supernatants from infected AQR cells.

[5] = test system: Friend Leukemia Virus; experiment: In vivo inhibition of Friend Leukemia Virus splenomegaly, intravenous 1-2 hours post infection (Example 10); parameters: species or system mice; conditions: Mus musculus, read-out: EC50 for FV-induced splenomegaly
Protocol: (3) In vivo inhibition of Friend Leukemia Virus Splenomegaly performed as described in Example 1 above except that the compounds were administered intravenously 1-2 hours post infection.
as §5

[6] = 1X, 100 micrograms per mouse i.p.
[7] = 5X, 100 micrograms per mouse i.p. once per day
[8] = 100 micrograms i.p. once, 24 h after FV, Table II
[9] = dose 2 × 100 (micrograms) i.p., Table III
[10] = dose 50 (micrograms) i.p., Table III
[11] = dose 100 (micrograms) i.p., Table III
[12] = dose 200 (micrograms) i.p., Table III
[13] = dose 2 × 100 (micrograms) i.p., Table III, read-out: Average Perdosage % Inhibition
[14] = dose 50 (micrograms) i.p., Table III, read-out: Average Perdosage % Inhibition
[15] = dose 100 (micrograms) i.p., Table III, read-out: Average Perdosage % Inhibition
[16] = dose 200 (micrograms) i.p., Table III, read-out: Average Perdosage % Inhibition

SMILES: c1ccc2c(c1)-c1ccc3c4ccc5c6c(ccc(c7ccc-2c1c37)c64)-c1ccccc1-5 [Compound 10, Diindeno(1,2,3-CD/1',2',3'-IM)Perylene]
% Inhibition [1, 6]: 22%
Average Spleen Weight [1, 6]: 1.724
Spleen weight [1, 6]: 1.7816 and 1.6664
% Inhibition [1, 7]: 46%
Average Spleen Weight [1, 7]: 1.2358
Spleen weight [1, 7]: 1.5771 and 0.8945
Average % Inhibition [2, 8]: 44.3%
Average Spleen Weight [2, 8]: 0.4767
Average % Inhibition ([2]; 100 micrograms i.p. once, 24 h after FV, Table II, listed as #10): > 40%
Actual Spleen Weight ([2]; 100 micrograms i.p. once, 24 h after FV, Table II, single animal): 0.4809 and 0.4724

SMILES: Brc1cc2ccc3ccc4ccccc4c3c2c2c1ccc1ccccc12 [Compound 9, 3-Bromophenanthro(3,4-C)Phenanthrene]
% Inhibition [1, 6]: 3%
Average Spleen Weight [1, 6]: 2.1074
Spleen weight [1, 6]: 2.0831 and 2.1317
% Inhibition [1, 7]: 24%
Average Spleen Weight [1, 7]: 1.681
Spleen weight [1, 7]: 1.6262 and 1.7363
Average Spleen Weight [2, 8]: 0.8756
inhibition of FV-induced splenomegaly / anti-retroviral activity ([2]; Example 1(a)): weak anti-retroviral activity

SMILES: CC(=O)Oc1cc(C)c2c3c(C)cc(OC(C)=O)c4c(=O)c5c(OC(C)=O)cc(OC(C)=O)c6c7c(OC(C)=O)cc(OC(C)=O)c8c(=O)c1c2c(c87)c(c43)c56 [HHA, Hypericin hexaacetate]
EC50 [3]: 12.9 µM
Average CPM ([4]; 0.05 micrograms): 466,981 CPM
CPM ([4]; 0.05 micrograms): 441,410 CPM and 492,552 CPM
Average CPM ([4]; 0.1 micrograms): 202,454 CPM
Average percent inhibition ([4]; 0.1 micrograms): 54.8%
CPM ([4]; 0.1 micrograms): 208,882 CPM and 196,026 CPM
Average CPM ([4]; 0.5 micrograms): 501,386 CPM
CPM ([4]; 0.5 micrograms): 518,336 CPM and 484,356 CPM
Average CPM ([4]; 1 microgram): 451,634 CPM
CPM ([4]; 1 microgram): 401,306 CPM and 501,962 CPM
Average CPM ([4]; 5 micrograms): 205,891 CPM
Average percent inhibition ([4]; 5 micrograms): 54.1%
CPM ([4]; 5 micrograms): 221,098 CPM and 190,604 CPM
Average CPM ([4]; 10 micrograms): 91,440 CPM
Average percent inhibition ([4]; 10 micrograms): 79.6%
CPM ([4]; 10 micrograms): 96,654 CPM and 86,226 CPM
Average CPM ([4]; 50 micrograms): 5,305 CPM
Average percent inhibition ([4]; 50 micrograms): 98.8%
CPM ([4]; 50 micrograms): 5,236 CPM and 5,374 CPM
Average CPM ([4]; 100 micrograms): 2,545 CPM
Average percent inhibition ([4]; 100 micrograms): 99.4%
CPM ([4]; 100 micrograms): 2,750 CPM and 2,340 CPM
inhibition of RadLV reverse transcriptase activity ([4]; Example 4): about as active a protohypericin in inhibiting the RadLV reverse transcriptase activity
EC50 [5]: > 199 µM

SMILES: O=C1c2ccccc2C(=O)c2cc(CO)ccc21 [Compound 35, 2-(hydroxymethyl)-anthraquinone]
EC50 [3]: > 41 µM
EC50 [5]: 145 µM
inhibition in vivo at 0.1 mg ([2]; read-out: Average Perdosage % Inhibition, dose 2 × 100 (micrograms) i.p., Table III): 75%
inhibition in vivo at 0.05 mg ([2]; read-out: Average Perdosage % Inhibition, dose 50 (micrograms) i.p., Table III): 62%
inhibition in vivo at 0.1 mg ([2]; read-out: Average Perdosage % Inhibition, dose 100 (micrograms) i.p., Table III): 64%
inhibition in vivo at 0.2 mg ([2]; read-out: Average Perdosage % Inhibition, dose 200 (micrograms) i.p., Table III): 77%
Average Spleen Weight [2, 9]: 0.6575
Average Spleen Weight [2, 10]: 0.8921
Average Spleen Weight [2, 11]: 0.8615
Average Spleen Weight [2, 12]: 0.6086
Pooled Average % Inhibition ([2]; Table III): 70%

EC50 [3]: > 51 µM
EC50 ([5]; i.v. 1-2 hours post infection, Table IX): 267 µM
SMILES: O=C1c2ccccc2Cc2ccccc21 [Compound 30, Anthrone]
inhibition in vivo at 0.1 mg [2, 13]: 57%
inhibition in vivo at 0.05 mg [2, 14]: 31%
inhibition in vivo at 0.1 mg [2, 15]: 63%
inhibition in vivo at 0.2 mg [2, 16]: 62%
Average Spleen Weight [2, 9]: 0.9878
Average Spleen Weight [2, 10]: 1.4953
Average Spleen Weight [2, 11]: 0.8790
Average Spleen Weight [2, 12]: 0.9092
Pooled Average % Inhibition ([2]; Table III): 53%

SMILES: Cc1cc(O)c2c(c1)C(=O)c1cc(O)cc(O)c1C2=O [Compound 34, Emodin]
EC50 [3]: > 37 µM
inhibition in vivo at 0.1 mg [2, 13]: 42%
inhibition in vivo at 0.05 mg [2, 14]: 41%
inhibition in vivo at 0.1 mg [2, 15]: 50%
inhibition in vivo at 0.2 mg [2, 16]: 20%
Average Spleen Weight [2, 9]: 1.2834
Average Spleen Weight [2, 10]: 1.2914
Average Spleen Weight [2, 11]: 1.1333
Average Spleen Weight [2, 12]: 1.6902
Pooled Average % Inhibition ([2]; Table III): 38%

From patent US6150414A, “Compositions and methods for treating viral infections” (priority 1992, dated 2000)
